Four compounds from paper PMC9516332 (Frontiers in Oncology, 2022) can be followed below.

What all share (assay): Kinase panel profiling at 1 µmol/L (MSA or IMAP), percentage inhibition
Holding throughout (assay type): biochemical

Assay [1] concerns the target T1, panel of 255 wild-type kinases (Homo sapiens, UniProt P21709).
T1 sequence (P21709 26-976): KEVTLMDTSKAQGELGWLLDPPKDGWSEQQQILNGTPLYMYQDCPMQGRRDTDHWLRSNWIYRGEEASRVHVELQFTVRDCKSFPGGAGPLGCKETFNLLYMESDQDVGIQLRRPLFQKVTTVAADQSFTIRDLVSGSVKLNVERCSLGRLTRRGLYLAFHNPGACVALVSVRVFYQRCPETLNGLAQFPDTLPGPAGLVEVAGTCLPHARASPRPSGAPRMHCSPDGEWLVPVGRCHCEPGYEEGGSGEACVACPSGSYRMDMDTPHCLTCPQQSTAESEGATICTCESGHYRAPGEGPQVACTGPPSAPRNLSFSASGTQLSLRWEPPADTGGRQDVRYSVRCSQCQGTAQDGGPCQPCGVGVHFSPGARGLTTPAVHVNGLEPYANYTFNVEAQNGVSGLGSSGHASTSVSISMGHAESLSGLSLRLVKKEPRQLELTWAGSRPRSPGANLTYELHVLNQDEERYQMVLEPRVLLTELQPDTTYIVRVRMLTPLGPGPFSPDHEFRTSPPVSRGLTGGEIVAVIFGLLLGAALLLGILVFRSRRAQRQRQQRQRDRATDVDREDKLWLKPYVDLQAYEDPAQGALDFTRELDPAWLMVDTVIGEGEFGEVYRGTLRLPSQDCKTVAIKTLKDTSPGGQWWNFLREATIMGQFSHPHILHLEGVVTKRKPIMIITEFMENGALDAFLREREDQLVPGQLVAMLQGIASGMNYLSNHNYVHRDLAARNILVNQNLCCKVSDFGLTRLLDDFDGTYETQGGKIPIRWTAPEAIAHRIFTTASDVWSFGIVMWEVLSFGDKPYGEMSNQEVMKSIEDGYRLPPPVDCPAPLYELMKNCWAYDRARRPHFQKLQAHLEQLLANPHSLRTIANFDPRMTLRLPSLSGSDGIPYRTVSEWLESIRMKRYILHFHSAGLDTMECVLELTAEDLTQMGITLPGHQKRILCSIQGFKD
Conditions: kinase EPHA1; 1 µmol/L single concentration; read-out: %-inhibition at 1 µmol/L, EPHA1.

The target in assay [2] is panel of 255 wild-type kinases (Homo sapiens, UniProt P53350). Conditions: kinase PLK1; 1 µmol/L single concentration; read-out: %-inhibition at 1 µmol/L, PLK1.
Assay [3] deals with T2, panel of 255 wild-type kinases (Homo sapiens, UniProt P54762).
T2 sequence (P54762 18-984): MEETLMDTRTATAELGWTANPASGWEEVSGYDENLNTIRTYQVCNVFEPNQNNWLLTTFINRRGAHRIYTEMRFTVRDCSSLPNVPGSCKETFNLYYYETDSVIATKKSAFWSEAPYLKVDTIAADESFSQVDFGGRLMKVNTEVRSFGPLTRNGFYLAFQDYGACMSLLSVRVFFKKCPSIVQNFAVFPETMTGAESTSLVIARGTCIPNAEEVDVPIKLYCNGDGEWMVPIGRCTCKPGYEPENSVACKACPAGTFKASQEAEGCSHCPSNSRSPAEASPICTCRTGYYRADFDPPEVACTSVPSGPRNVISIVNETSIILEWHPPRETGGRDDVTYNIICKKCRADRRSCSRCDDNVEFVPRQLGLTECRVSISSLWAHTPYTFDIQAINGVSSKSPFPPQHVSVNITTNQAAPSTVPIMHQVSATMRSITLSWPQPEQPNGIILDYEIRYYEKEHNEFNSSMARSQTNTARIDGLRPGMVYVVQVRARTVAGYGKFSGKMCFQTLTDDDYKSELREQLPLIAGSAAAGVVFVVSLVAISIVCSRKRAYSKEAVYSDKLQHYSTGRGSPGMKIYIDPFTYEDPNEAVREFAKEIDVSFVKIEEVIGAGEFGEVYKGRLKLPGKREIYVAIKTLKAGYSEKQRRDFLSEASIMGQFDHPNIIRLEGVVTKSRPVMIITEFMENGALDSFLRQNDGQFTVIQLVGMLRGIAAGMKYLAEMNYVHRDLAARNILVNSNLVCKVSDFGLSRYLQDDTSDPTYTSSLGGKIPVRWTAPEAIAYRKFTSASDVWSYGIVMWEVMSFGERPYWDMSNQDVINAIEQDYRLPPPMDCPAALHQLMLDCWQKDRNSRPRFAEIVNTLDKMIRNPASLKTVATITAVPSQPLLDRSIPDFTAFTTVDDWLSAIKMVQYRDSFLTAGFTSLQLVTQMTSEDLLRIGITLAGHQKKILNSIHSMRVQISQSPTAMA
The conditions noted are these: kinase EPHB1; 1 µmol/L single concentration; read-out: %-inhibition at 1 µmol/L, EPHB1.

Assay [4] concerns the target panel of 255 wild-type kinases (Homo sapiens, UniProt Q14289). Conditions: kinase PYK2; 1 µmol/L single concentration; read-out: %-inhibition at 1 µmol/L, PYK2.
In assay [5] the target is T3, panel of 255 wild-type kinases (Homo sapiens, UniProt Q8TF76).
T3 sequence (Q8TF76 1-798): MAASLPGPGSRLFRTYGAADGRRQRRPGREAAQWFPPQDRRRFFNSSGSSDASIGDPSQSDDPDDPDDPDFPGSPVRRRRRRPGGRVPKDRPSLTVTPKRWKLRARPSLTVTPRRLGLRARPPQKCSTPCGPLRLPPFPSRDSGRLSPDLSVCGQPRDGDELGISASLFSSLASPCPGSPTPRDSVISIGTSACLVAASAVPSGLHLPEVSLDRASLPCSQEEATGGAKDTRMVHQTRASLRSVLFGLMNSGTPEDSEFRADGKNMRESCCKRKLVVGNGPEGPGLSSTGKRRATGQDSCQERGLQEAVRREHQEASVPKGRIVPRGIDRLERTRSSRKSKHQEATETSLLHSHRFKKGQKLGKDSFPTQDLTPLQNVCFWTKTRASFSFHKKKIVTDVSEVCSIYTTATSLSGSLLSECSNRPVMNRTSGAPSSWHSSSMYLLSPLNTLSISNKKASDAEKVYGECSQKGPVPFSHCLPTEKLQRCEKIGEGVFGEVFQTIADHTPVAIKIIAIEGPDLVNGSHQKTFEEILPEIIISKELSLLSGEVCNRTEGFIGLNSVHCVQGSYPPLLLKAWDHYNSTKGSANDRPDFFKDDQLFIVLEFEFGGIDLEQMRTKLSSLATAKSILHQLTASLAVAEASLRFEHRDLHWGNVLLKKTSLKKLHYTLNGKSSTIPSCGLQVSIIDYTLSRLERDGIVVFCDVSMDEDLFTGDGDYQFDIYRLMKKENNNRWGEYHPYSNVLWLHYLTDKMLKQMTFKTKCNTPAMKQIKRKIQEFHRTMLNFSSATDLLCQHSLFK
The conditions noted are these: kinase Haspin; 1 µmol/L single concentration; read-out: %-inhibition at 1 µmol/L, Haspin.

`Cc1nc(NC(=O)N2CCC[C@H]2C(N)=O)sc1-c1ccnc(C(C)(C)C(F)(F)F)c1` [alpelisib]: the inhibition at 1 µM in assay [1] was -3.59%; in assay [2], 0.0286%; in assay [3] it was 8%; in assay [4] it was -4%; in assay [5], -4%.

For `FC(F)(F)c1ccc(CNc2ccc(Cc3c[nH]c4ncc(Cl)cc34)cn2)cn1` [pexidartinib], the inhibition at 1 µM stood at 7% in assay [1]; 6.33% in assay [2]; 11% in assay [3]; 3% in assay [4]; 6.52% in assay [5].

On to `CCc1nc(C(N)=O)c(Nc2ccc(N3CCC(N4CCN(C)CC4)CC3)c(OC)c2)nc1NC1CCOCC1` [gilteritinib], for which the inhibition at 1 µM in assay [1] stood at 99%; in assay [2], 7.52%; in assay [3], 87%; in assay [4], 93%; in assay [5], 35%.

For `O=C(Nc1cnn2ccc(N3CCC[C@@H]3c3cc(F)ccc3F)nc12)N1CC[C@H](O)C1` [larotrectinib], the inhibition at 1 µM in assay [1] was -2.54%; in assay [2] it was -1.17%; in assay [3], -0.531%; in assay [4], 5.34%; in assay [5] it was -4.46%.
